Patent US20160025704A1, “METHODS FOR IDENTIFYING NEUROPROTECTIVE PKC ACTIVATORS” (priority 2013, published 2016)
Read-outs that look alike come from different tables or passages of the source.

Columns and labels:
ECE = ECE activity in SH-SY5Y cells (fluorometric); type: cell-based; settings: compared to ethanol alone
Method: Aβ can be degraded in vivo by a number of enzymes, including insulin degrading enzyme (insulysin), neprilysin, and ECE (FIG. 12). Because PKC-ε overexpression has been reported to activate ECE (Choi et al., Proc. Natl. Acad. Sci. USA. 2006; 103: 8215-20), the effect of PKC activators on ECE was analyzed. Candidate PKC activators were added to either SH-SY5Y cells (Bryo—0.27 nM, DCP-LA—1 μM, and DHA-CP6 1 μM) or cultured neurons (DHA-CP6—1 μM, EPA-CP5— 1 μM, and AA-CP4— 1 μM), and grown on either 12- or 24-well plates. After various time periods, the cells were collected and ECE activity was measured fluorometrically. Results are shown below in FIG. 13. *, p<0.05; **, p<0.001.
PKCε overexpression has been reported to activate endothelin converting enzyme (ECE). The effect of PKC activators on ECE was measured here with Bryostatin, DCP-LA, and DHA-CP6. […] Protocol: Bryostatin (0.27 nM), DCP-LA (1 μM), DHACP6 (1 μM), EPA-CP5 (1 μM), AA-CP4 (1 μM), or ethanol alone were added to SH-SYSY cells growing on 12- or 24-well plates. After various periods of time, the cells were collected and ECE activity was measured fluorometrically as showing in FIG. 34 below (* p<0.05, ** p<0.001).

5XFAD mice = assay: Water maze learning and memory and amyloid deposition in 5XFAD mice; type: in vivo; settings: 2 times/week from 2 months old
Excerpt: Protocol: 5-month old 5XFAD mice were trained for 5-6 days (3-4 trials/day) to find a hidden platform (9 cm diameter), submerged about 2 cm below the water surface in the a maze pool with 114 cm diameter. After the training trials, a probe trial (a quadrant test or memory retention trial) was given with the platform removed to assess memory retention for its location by the distance the mouse moved in the quadrants. […] Non-treated groups (wild-type and transgenic (5×) mice) received the same vehicle volumes, mechanism of delivery, and frequency of administration as the treated groups

PKC-ε = biological target: T1, PKC-ε (Homo sapiens, UniProt Q02156); assay: Activation of purified PKC isozymes; type: biochemical
T1 sequence (Q02156 1-737): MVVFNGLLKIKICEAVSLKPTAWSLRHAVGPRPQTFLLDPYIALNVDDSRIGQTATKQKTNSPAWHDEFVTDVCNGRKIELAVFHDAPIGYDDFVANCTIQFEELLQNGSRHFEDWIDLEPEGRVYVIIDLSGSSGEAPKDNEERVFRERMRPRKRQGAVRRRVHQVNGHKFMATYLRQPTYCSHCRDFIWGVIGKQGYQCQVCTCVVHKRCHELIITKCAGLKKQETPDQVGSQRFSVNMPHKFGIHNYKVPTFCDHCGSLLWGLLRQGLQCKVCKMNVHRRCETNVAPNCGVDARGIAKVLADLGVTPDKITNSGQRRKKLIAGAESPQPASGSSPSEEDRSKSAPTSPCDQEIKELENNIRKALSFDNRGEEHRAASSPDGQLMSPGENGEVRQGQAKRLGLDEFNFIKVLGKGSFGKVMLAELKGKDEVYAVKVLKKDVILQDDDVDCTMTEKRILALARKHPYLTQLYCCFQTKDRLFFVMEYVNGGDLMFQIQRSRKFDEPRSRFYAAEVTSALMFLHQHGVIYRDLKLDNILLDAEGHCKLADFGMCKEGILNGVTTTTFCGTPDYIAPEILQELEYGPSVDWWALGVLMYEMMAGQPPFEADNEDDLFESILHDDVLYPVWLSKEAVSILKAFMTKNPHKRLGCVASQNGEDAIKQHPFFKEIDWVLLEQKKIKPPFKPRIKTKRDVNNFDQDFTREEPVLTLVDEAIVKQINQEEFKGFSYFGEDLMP
Method: Protocol: Purified PKC-α, βII, γ, δ, or ε (9 ng) was preincubated for 5 minutes at room temperature with the following PKC activators: (A) DHA-CP6, (B) EPA-CP5, (C) AA-CP4, (D) DCP-LA, (E) “other cyclopropaneated and epoxidized fatty acids, alcohols, and methyl esters.” followed by measurement of PKC activity as described under Experimental Procedures. Results are shown below in FIG. 6.

[1] = system: TA 100 cells & TA 1535 cells / TA 98 cells; assay: AMES testing, overall result (mutagenic potential); type: cell-based
Excerpt: The AMES test is a rapid screening of the mutagenic potential of chemical compounds. […] Between 50% and 70% of all known carcinogens test positive in the AMES test.

Row | SMILES | ECE activity (ECE; 1 μM) | amyloid deposition (5XFAD mice; 20 mg/m2 tail vein) | learning and memory deficits (water maze) (5XFAD mice; 20 mg/m2 tail vein) | PKC-ε specificity versus PKC-α and PKC-δ (PKC-ε; purified PKC isozymes (9 ng), preincubated 5 minutes at room temperature) | AMES testing result [1] | Result (Mutagenic Potential) [1] | ECE activity (ECE; 0.27 nM) | ECE activity (ECE; 0.27 nM, listed as Bryo) | amyloid deposition (5XFAD mice; 30 μg/kg intraperitoneal) | learning and memory deficits (water maze) (5XFAD mice; 30 μg/kg intraperitoneal) | activation of α isoform versus ε isoform (PKC-ε; in vitro measurements with purified PKC isozymes) | AMES testing result ([1]; summary of Tables 1-4)
1 | CCCCCC1CC1CC1CC1CCCCCCCC(=O)O (stereo not drawn) [DCPLA, 8-[2-(2-pentylcyclopropyl)methyl]-cyclopropaneoctanoic acid] | sustained increase in ECE activity | reduced amyloid deposition | prevented learning (A, C) and memory deficits (B, D) | PKC-ε specificity ±15% PKC-α and PKC-δ | not mutagenic | Result: Not mutagenic, p > 0.05 |  |  |  |  |  | 
2 | CCC/C=C/C=C/C(=O)O[C@H]1/C(=C/C(=O)OC)C[C@H]2C[C@H]([C@@H](C)O)OC(=O)C[C@H](O)C[C@@H]3C[C@H](OC(C)=O)C(C)(C)[C@](O)(C[C@@H]4C/C(=C/C(=O)OC)C[C@H](/C=C/C(C)(C)[C@]1(O)O2)O4)O3 [Bryostatin, bryostatin-1] |  |  |  |  |  |  | sustained increase in ECE activity | increase in ECE activity | reduced amyloid deposition | prevented learning (A, C) and memory deficits (B, D) | activates the α isoform and ε isoform equally | not mutagenic
